Where two headings read alike, the source gives them in different places.
What was measured:
Assay type in all cases: in vivo, male Sprague Dawley rats
[1] = system: blood glucose level in non-diabetic rats; experiment: Hypoglycemic activity in non-diabetic rats (screening test); conditions: Rattus norvegicus, 100 mg/kg oral, fasted, glucose s.c.
Description: (§1) These new compounds of the present invention are very useful as anti-diabetic agents, which is supported from the following pharmacological studies. The animals used for the pharmacological studies were male Sprague Dawley rats exept otherwise noted. 1. Hypoglycemic activity in non-diabetic rats (screening test)
The rats were fasted for 16 - 18 hours prior to the experiment and those weighing 140 - 160g were used. Glucose solution (100 mg/0.5ml/150g body weight) was subcutaneously injected on the fasted rats. Each of the present compounds was suspended in 1% carboxymethyl cellulose (CMC), and about 0.5 ml of the suspension (corresponding to 100 mg/kg of the compound per body weight) was orally administered. Blood samples were taken from the tail vein of the rats at 2 and 5 hours after the administration, and the blood glucose level in each sample (0.1 ml) was determined by the micro method of Momose as described in SOGO-RINSHO 11, 120 (1962).
3,5-Dinitrophthalic acid is reduced with glucose to stable orange-red azo-compound via red hydroxyaminophthalic acid in basic media.
To 0.5ml of water was added 0.1ml of blood and shaken to hemolyze, and to which was added 1.7ml of 0.06N barium hydroxide solution. To the resulting dark-brown solution was added 1.7ml of zinc sulfate solution (1g/dl), and which was shaken thoroughly and allowed to stand for 2-3min followed by centrifugation.
One ml of 3,5-dinitrophthalic acid solution (1.5g of monopyridinium-3,5-dinitrophthalate in 500ml of water) and 1 ml of sodium carbonatesodium hyposulfite solution (125-25g/500ml) were added to 2ml of spernatant solution. The solution was heated at 100° C for 10 min. After cooling with running water for 3 min, water was added to make 20ml.
To 2ml of water were added 3,5-dinitrophthalic acid solution and an alkaline solution, and the solution was treated as mentioned above.
As the absorbance of reference at 450nm was adjusted to 0, the absorbance of sample corresponded to blood glucose level.

[2] = system: blood glucose level in alloxan diabetic rats; experiment: Hypoglycemic effect in alloxan diabetic rats; conditions: ± SE
Description: as §1
(§2) Alloxan diabetic rats were obtained as follows. Namely, 2.5% fresh solution of alloxan (50mg/kg) was injected into the tail vein of male rats, and the rats were daily injected with insulin (1-4 units/day) from the 7th day after the administration of alloxan. The alloxan diabetic rats which were survived for more than 2 months with daily injection of insulin were used. The alloxan diabetic rats were fasted for 24 hours after the last treatment with insulin, and then the compound of the present invention was orally administered. The blood glucose levels were determined by the micro method of Momose before and 2, 4 and 6 hours after the administration.

[3] = system: blood glucose level in non-diabetic rats; experiment: Blood glucose level in non-diabetic rats at 90 minutes; conditions: 100 mg/kg oral
Description: as §1
(§3) The rats were fasted for 16-18 hours, and those weighing 130-160g were used. The compound 4 suspended in 1% CMC was orally administered to the fasted rats, and at 90 minutes after administration blood was drawn from the […] vena cava under anesthesia with sodium pentobarbital. The blood glucose level was determined by the method of Momose, and the serum FFA level was determined by the method of Itaya and Ui as described in J. Lipid Res., 6, 16 (1965), respectively.

[4] = system: serum FFA level in non-diabetic rats; experiment: Serum free fatty acids (FFA) level in non-diabetic rats at 90 minutes; conditions: 100 mg/kg oral
Description: as §1, §3

[5] = system: serum FFA level in alloxan diabetic rats; experiment: Serum FFA level in alloxan diabetic rats, 10 consecutive days; conditions: 100 mg/kg, 10 consecutive days
Description: as §1, §2
(§4) The alloxan diabetic rats which were prepared and then preserved for 6 months with insulin as described in the previous experiment were used.

[6] = system: serum cholesterol level in alloxan diabetic rats; experiment: Serum cholesterol level in alloxan diabetic rats, 10 consecutive days; conditions: 100 mg/kg, 10 consecutive days
Description: as §1, §2, §4

[7] = system: blood glucose level in streptozotocin-diabetic rats; experiment: Hypoglycemic effect in streptozotocin-diabetic rats; conditions: Rattus norvegicus; 100 mg/kg oral; 4 hours
Description: The animals used for the pharmacological studies were male Sprague Dawley rats exept otherwise noted. 1. […]
The rats were fasted for 16 hours, and then streptozotocin was intravenously injected in a dose of 65 mg/kg. Oral administration of the compound 4 was performed at 48 hours after the injection of streptozotocin. Blood samples were taken at 4 hours after the oral administration, and the blood glucose level in each sample was determined.

[8] = system: serum FFA level in fasted rats; experiment: Time course of the serum FFA level in fasted rats (FIG. 1); conditions: 50 mg/kg oral; 0.5, 1, 2, 4 and 6 hours
Description: as §1
Further experiment was performed to clarify the effectiveness of the compound 4 on the serum FFA. Blood samples were taken at 0.5, 1, 2, 4 and 6 hours after an oral administration of 50 mg/kg to the fasted rats and the serum FFA levels were determined.

[9] = system: blood glucose level in alloxan diabetic rats; experiment: Blood glucose level in alloxan diabetic rats loaded with much quantity of glucose; conditions: alloxan diabetic rats; dose not stated
Description: as §1
Respective dose of the compound 4 (12.5 and 100 mg/kg) together with 2g/kg of glucose was orally administered to the alloxan diabetic rats.

[10] = 2 hours, read-out: Reduction % of blood glucose from control after 2 hours
[11] = 5 hours, read-out: Reduction % of blood glucose from control after 5 hours

| Structure (SMILES) | inhibition in vivo at 100 mg/kg [1, 10] [%] | inhibition in vivo at 100 mg/kg [1, 11] [%] | also measured |
| --- | --- | --- | --- |
| Cc1cc(C)n(C(=O)CCNS(=O)(=O)c2ccccc2)n1 [Example 1, 1-(N-benzenesulfonyl-β-alanyl)-3,5-dimethylpyrazole] | 22.1 | 19.8 |  |
| CC(=O)NCCc1ccc(S(=O)(=O)NCCC(=O)n2nc(C)cc2C)cc1 [Example 2, 1-≡N-[p-(2-acetaminoethyl)benzene-sulfonyl]-β-alanyl.quadrature. -3,5-dimethylpryrazole] | 37.1 | 26 |  |
| Cc1cc(C)n(C(=O)CCNS(=O)(=O)c2ccc(CCNC(=O)c3cnccn3)cc2)n1 [Example 3, 1-≡N-≡ p-[2-(2-pyrazinecarbonyl-amino)ethyl]benzenesulfonyl.quadrature. -β-alanyl.quadrature. -3,5-dimethylpyrazole] | 41.7 | 25.7 |  |
| CC(=O)NCCc1ccc(S(=O)(=O)NCC(=O)n2nc(C)cc2C)cc1 [Example 5, 1-≡N-[p-(2-acetaminoethyl)-benzenesulfonyl]-glycyl.quadrature.-3,5-dimethylpyrazole] | 35.2 | 34.1 |  |
| CCOC(=O)NCCc1ccc(S(=O)(=O)NCC(=O)n2nc(C)cc2C)cc1 [Example 6, 1-≡N-[p-(2-ethoxycarbonylaminoethyl)benzenesulfonyl]-glycyl.quadrature.-3,5-dimethylpyrazole] | 33.3 | 22.1 |  |
| CCOC(=O)NCCc1ccc(S(=O)(=O)NCCC(=O)n2nc(C)cc2C)cc1 [Example 7, 1-≡N-[p-(2-ethoxycarbonylaminoethyl)benzenesulfonyl]-β -alanyl.qu adrature.-3,5-dimethylpyrazole] | 41.6 | 23.3 |  |
| Cc1cc(C)n(C(=O)CCNS(=O)(=O)c2ccc(Cl)cc2)n1 [Example 8, 1-[N-(p-chlorobenzenesulfonyl)-β-alanyl]-3,5-dimethylpyrazole] | 42.5 | 22.1 |  |
| COc1ccc(Cl)cc1C(=O)NCCc1ccc(S(=O)(=O)NCC(=O)n2nc(C)cc2C)cc1 [Example 9, 1-≡N-≡p-[2-(2-methoxy-5-chlorobenzoylamino)-ethyl]benzenesulfonyl.quadrature.glycyl.quadrature.-3,5-dimethyl-pyrazole] | 48.1 | 17.7 |  |
| Cc1cc(C)n(C(=O)CNS(=O)(=O)c2ccc(C3CCCCC3)cc2)n1 [Example 10, 1-[N-(p-cyclohexylbenzenesulfonyl)-glycyl]-3,5-dimethylpyrazole] | 42.1 | 3.3 |  |
| Cc1cc(C)n(C(=O)CNS(=O)(=O)c2ccc(CC(C)C)cc2)n1 [Example 11, 1-[N-(p-isobutylbenzenesulfonyl)-glycyl]-3,5-dimethylpyrazole] | 37.9 | 1.4 |  |
| Cc1cc(C)n(C(=O)C(NS(=O)(=O)c2ccc(Cl)cc2)c2ccccc2)n1 (stereo not drawn) [Example 12, 1-[N-(p-chlorobenzenesulfonyl)-α-phenylglycyl]-3,5-dimethylpyrazole] | 32.6 | 4 |  |
| Cc1cc(C)n(C(=O)[C@H](C)NS(=O)(=O)c2ccc(Cl)cc2)n1 [Example 13, 1-[N-(p-chlorobenzenesulfonyl)-alanyl]-3,5-dimethylpyrazole] | 51.3 | 5 |  |
| Cc1cc(C)n(C(=O)[C@H](Cc2ccccc2)NS(=O)(=O)c2ccc(Cl)cc2)n1 [Example 14, 1-[N-(p-chlorobenzenesulfonyl)-phenylalanyl]-3,5-dimethylpyrazole] | 43.6 | -0.9 |  |
| [H]/N=C(/N)N/C(=N/[H])NCCc1ccccc1 [Phenformin, phenethylbiguanide, reference compound] |  |  | Blood glucose before administration ([2]; 100 mg/kg oral group, before administration (baseline)): 368.7 ± 31.3 mg%; Blood glucose 2 hours ([2]; 100 mg/kg oral, 2 hours): 262.2 ± 43.3 mg%; Blood glucose 4 hours ([2]; 100 mg/kg oral, 4 hours): 196.0 ± 48.9 mg%; Blood glucose 6 hours ([2]; 100 mg/kg oral, 6 hours): 133.7 ± 29.3 mg%; Blood glucose level [3]: 103.0 ± 6.9 mg/dL; Serum FFA level [4]: 59.8 ± 18.0 μ Eq/dl; FFA [5]: 89.9 ± 16.4 μ Eq/dl serum; Cholesterol [6]: 63.5 ± 5.4 mg/dl serum; inhibition at 100 mg/kg [7]: 79.9 ± 2.9% |
| COCCOc1cnc(NS(=O)(=O)c2ccccc2)nc1 [sodium glymidine] |  |  | Effect on serum FFA level (in words, FIG. 1) [8]: only a slight suppression; Hypoglycemic effect (in words) [9]: no hypoglycemic effect |

From patent US4007201A, “Novel pyrazole derivatives” (Kyorin Pharmaceutical Co. Ltd., priority 1975, dated 1977)
